Results on 32 compounds are retold here after US12441691B2 (Cytokinetics, Inc., priority 2020, dated 2025).

The subject of this test is rabbit skeletal myofibrils (fast skeletal myofibrils). The test is described as follows: Activation of fast skeletal myofibrils (PUMA assay, AC1.4). The test is classed as biochemical. The settings on record: calcium at pCa25, AC1.4 = concentration at which the compound increased the enzymatic activity. On the procedure:
Preparation of fast skeletal myofibrils: Rabbit skeletal myofibrils were prepared based upon the method of Herrmann et al. (Biochem. 32(28):7255-7263(1993). Myofibrils were prepared from rabbit psoas muscle purchased from Pel-Freez Biologicals (Arkansas) within 2 days of ordering, stored on ice. Minced muscle was homogenized in 10 volumes of ice-cold “standard” buffer (50 mM Tris, pH 7.4, 0.1 M KOAc, 5 mM KCl, 2 mM dithiothreitol (DTT), 0.2 mM phenylmethylsulfonyl fluoride (PMSF), 10 μM leupeptin, 5 μM pepstatin, and 0.5 mM sodium azide) containing 5 mM ethylenediaminetetraacetic acid (EDTA) and 0.5% Triton X-100 using an Omni-Macro homogenizer. Myofibrils were recovered by low speed centrifugation (3000 rpm for 10 minutes) and washed 2 times in the Triton X-100 containing buffer to ensure removal of cellular membrane. Following the Triton washes, myofibrils were washed 3 times in “standard” buffer containing 2 mM magnesium acetate. A final wash in assay buffer (12 mM piperazine-1,4-bis(2-ethanesulfonic acid) (PIPES), pH 6.8, 60 mM KCl, 1 mM DTT) was performed and brought to 10% sucrose for flash freezing in liquid nitrogen and storage at −80° C.
Activation of Fast Skeletal Myofibrils: Fast fiber activators were identified by measuring the enzymatic activity of muscle myofibril preparations using the proprietary PUMA (trademark) (see, e.g., U.S. Pat. Nos. 6,410,254, 6,743,599, 7,202,051, and 7,378,254) assay system. Myofibril preparations consisted of rabbit skeletal muscle (approximately 90% fast fibers) that had been mechanically homogenized and washed with a detergent (Triton X-100) to remove cellular membranes. This preparation retained all of the sarcomeric components in a native conformation and the enzymatic activity was still regulated by calcium. Compounds were tested using a myofibril suspension and a level of calcium sufficient to increase enzymatic activity of the myofibrils to 25% of their maximal rate (termed pCa25). Enzymatic activity was tracked via a pyruvate kinase and lactate dehydrogenase-coupled enzyme system. This assay regenerates myosin-produced ADP into ATP by oxidizing NADH, producing an absorbance change at 340 nm. The buffering system was 12 mM PIPES, 2 mM MgCl2, 1 mM DTT at pH 6.8 (PM12 buffer). […] In Table 9, “Example Compound” refers to the compound labeled with the same number in Table 2.
In the case of `CC[C@H](C)[C@H]1C(=O)Nc2ccccc2[C@@H]2COC(=O)N12` (single isomer, unassigned) [Compound 36], the AC1.4 was found to be 0.09 µM.
Regarding `CC[C@H](C)[C@H]1C(=O)Nc2ccccc2[C@H](CO)N1C(N)=O` (single isomer, unassigned) [Compound 37], the AC1.4 was found to be 0.26 µM.
Next, `CC[C@H](C)[C@H]1C(=O)Nc2ccccc2[C@H](C)N1C(=O)c1cnn(C)c1` (single isomer, unassigned) [Compound 38]: 0.10 µM; `CC[C@H](C)[C@H]1C(=O)Nc2ccccc2[C@H](C)N1C(N)=O` (single isomer, unassigned) [Compound 39]: 0.17 µM; `CC[C@H](C)[C@H]1C(=O)Nc2ccccc2[C@@H](C(=O)OC)N1C(=O)c1cnn(C)c1` (single isomer, unassigned) [Compound 321]: 0.12 µM.
Next, `CC[C@H](C)[C@H]1C(=O)Nc2ccccc2CN1c1nccc(=O)[nH]1` [Compound 3, (S)-3-((S)-sec-Butyl)-4-(6-oxo-1,6-dihydropyrimidin-2-yl)-1,3,4,5-tetrahydro-2H-benzo[e][1,4]diazepin-2-one]: 0.09 µM.
Next, `CC[C@H](C)[C@H]1C(=O)Nc2ccccc2CN1c1nn[nH]n1` [Compound 4, (S)-3-((S)-sec-Butyl)-4-(2H-tetrazol-5-yl)-1,3,4,5-tetrahydro-2H-benzo[e][1,4]diazepin-2-one]: 0.21 µM.
Consider `CC[C@H](C)[C@H]1C(=O)Nc2ccccc2CN1C(N)=O` [Compound 5, (S)-3-((S)-sec-Butyl)-2-oxo-1,2,3,5-tetrahydro-4H-benzo[e][1,4]diazepine-4-carboxamide], for which the AC1.4 stood at 0.08 µM.
Next, `CC[C@H](C)[C@H]1C(=O)Nc2cncnc2CN1C(N)=O` [Compound 11, (S)-7-((S)-sec-Butyl)-6-oxo-5,6,7,9-tetrahydro-8H-pyrimido[5,4-e][1,4]diazepine-8-carboxamide]: 1.30 µM; `CC[C@H](C)[C@H]1C(=O)Nc2cc(F)cnc2CN1C(N)=O` [Compound 13, (S)-3-((S)-sec-Butyl)-8-fluoro-2-oxo-1,2,3,5-tetrahydro-4H-pyrido[3,2-e][1,4]diazepine-4-carboxamide]: 1.03 µM; `CC[C@H](C)[C@H]1C(=O)Nc2ccccc2-c2cnc(O)n21` [Compound 14, (S)-5-((S)-sec-Butyl)-3-hydroxy-5H-benzo[f]imidazo[1,5-d][1,4]diazepin-6(7H)-one]: 0.15 µM.
Turning to `CC[C@H](C)[C@H]1C(=O)Nc2ccccc2CN1C(C)=O` [Compound 15, (S)-4-Acetyl-3-((S)-sec-butyl)-1,3,4,5-tetrahydro-2H-benzo[e][1,4]diazepin-2-one], the AC1.4 is 0.27 µM.
Next, `CC[C@H](C)[C@H]1C(=O)Nc2ccccc2CN1C(=O)c1cnn(CCO)c1` [Compound 16, (S)-3-((S)-sec-Butyl)-4-(1-(2-hydroxyethyl)-1H-pyrazole-4-carbonyl)-1,3,4,5-tetrahydro-2H-benzo[e][1,4]diazepin-2-one]: 0.14 µM.
`CC[C@H](C)[C@H]1C(=O)Nc2ccccc2CN1C(=O)CN` [Compound 17, (S)-3-((S)-sec-Butyl)-4-glycyl-1,3,4,5-tetrahydro-2H-benzo[e][1,4]diazepin-2-one]: the AC1.4 turned out to be 2.83 µM.
Next, `CC[C@H](C)[C@H]1C(=O)Nc2ccccc2CN1C(=O)CO` [Compound 18, (S)-3-((S)-sec-Butyl)-4-(2-hydroxyacetyl)-1,3,4,5-tetrahydro-2H-benzo[e][1,4]diazepin-2-one]: 0.31 µM; `CC[C@H](C)[C@H]1C(=O)Nc2ccccc2CN1C(=N)N` [Compound 19, (S)-3-((S)-sec-Butyl)-2-oxo-1,2,3,5-tetrahydro-4H-benzo[e][1,4]diazepine-4-carboximidamide]: 0.13 µM; `CC[C@H](C)[C@H]1C(=O)Nc2ccccc2CN1C(=O)OC` [Compound 20, Methyl (S)-3-((S)-sec-butyl)-2-oxo-1,2,3,5-tetrahydro-4H-benzo[e][1,4]diazepine-4-carboxylate]: 0.25 µM.
Next, `CC[C@H](C)[C@H]1C(=O)Nc2ccccc2CN1/C(=N/C#N)N(C)C` [Compound 21, (S,E)-3-((S)-sec-Butyl)-N′-cyano-N,N-dimethyl-2-oxo-1,2,3,5-tetrahydro-4H-benzo[e][1,4]diazepine-4-carboximidamide]: 0.18 µM.
Next, `CC[C@H](C)[C@H]1C(=O)Nc2ccccc2CN1/C(N)=N/C(=O)OC` [Compound 22, Methyl ((E)-amino((S)-3-((S)-sec-butyl)-2-oxo-1,2,3,5-tetrahydro-4H-benzo[e][1,4]diazepin-4-yl)methylene)carbamate]: 0.07 µM; `CC[C@H](C)[C@H]1C(=O)Nc2ccccc2CN1c1nc(O)cc(=O)[nH]1` [Compound 23, (S)-3-((S)-sec-Butyl)-4-(4-hydroxy-6-oxo-1,6-dihydropyrimidin-2-yl)-1,3,4,5-tetrahydro-2H-benzo[e][1,4]diazepin-2-one]: 0.16 µM; `CC[C@H](C)[C@H]1C(=O)Nc2ccccc2CN1c1ncc(N)c(=O)[nH]1` [Compound 24, (S)-4-(5-Amino-4-hydroxypyrimidin-2-yl)-3-((S)-sec-butyl)-1,3,4,5-tetrahydro-2H-benzo[e][1,4]diazepin-2-one]: 0.08 µM.
Consider `CC[C@H](C)[C@H]1C(=O)Nc2ccccc2CN1c1noc(=O)[nH]1` [Compound 25, 3-((S)-3-((S)-sec-Butyl)-2-oxo-1,2,3,5-tetrahydro-4H-benzo[e][1,4]diazepin-4-yl)-1,2,4-oxadiazol-5(4H)-one], for which the AC1.4 was 0.12 µM.
Next, `CC[C@H](C)[C@H]1C(=O)Nc2ccccc2CN1S(C)(=O)=O` [Compound 26, (S)-3-((S)-sec-Butyl)-4-(methylsulfonyl)-1,3,4,5-tetrahydro-2H-benzo[e][1,4]diazepin-2-one]: 0.78 µM.
Next, `CC[C@H](C)[C@H]1C(=O)Nc2ccccc2CN1S(=O)(=O)N(C)C` [Compound 27, (S)-3-((S)-sec-Butyl)-N,N-dimethyl-2-oxo-1,2,3,5-tetrahydro-4H-benzo[e][1,4]diazepine-4-sulfonamide]: 0.23 µM.
In the case of `CC(=O)N1Cc2ccccc2NC(=O)[C@@H]1C1CCCCC1` [Compound 28, (S)-4-acetyl-3-cyclohexyl-1,3,4,5-tetrahydro-2H-benzo[e][1,4]diazepin-2-one], the AC1.4 came to 0.28 µM.
Next, `NC(=O)N1Cc2ccccc2NC(=O)[C@@H]1C1CCCCC1` [Compound 29, (S)-3-Cyclohexyl-2-oxo-1,2,3,5-tetrahydro-4H-benzo[e][1,4]diazepine-4-carboxamide]: 0.22 µM; `CC[C@H](C)[C@H]1C(=O)Nc2ccccc2CN1c1c(N2CC(O)C2)c(=O)c1=O` [Compound 30, 3-((S)-3-((S)-sec-Butyl)-2-oxo-1,2,3,5-tetrahydro-4H-benzo[e][1,4]diazepin-4-yl)-4-(3-hydroxyazetidin-1-yl)cyclobut-3-ene-1,2-dione]: 0.08 µM.
With `CC[C@H](C)[C@H]1C(=O)Nc2ccccc2CN1C(=O)NC` [Compound 31, (S)-3-((S)-sec-Butyl)-N-methyl-2-oxo-1,2,3,5-tetrahydro-4H-benzo[e][1,4]diazepine-4-carboxamide], the AC1.4 was determined as 0.21 µM.
Next, `CC[C@H](C)[C@H]1C(=O)Nc2ccccc2CN1C(=O)C(N)=O` [Compound 33, 2-((S)-3-((S)-sec-Butyl)-2-oxo-1,2,3,5-tetrahydro-4H-benzo[e][1,4]diazepin-4-yl)-2-oxoacetamide]: 1.14 µM.
Next, `CC[C@H](C)[C@H]1C(=O)Nc2ccccc2CN1c1nc(C)ns1` [Compound 34, (S)-3-((S)-sec-Butyl)-4-(3-methyl-1,2,4-thiadiazol-5-yl)-1,3,4,5-tetrahydro-2H-benzo[e][1,4]diazepin-2-one]: 0.09 µM; `CC[C@H](C)[C@H]1C(=O)Nc2ccccc2CN1c1nccs1` [Compound 35, (3S)-3-[(2S)-Butan-2-yl]-4-(1,3-thiazol-2-yl)-1,3,4,5-tetrahydro-2H-1,4-benzodiazepin-2-one]: 0.07 µM; `CC[C@H](C)[C@H]1C(=O)Nc2ccccc2C(C(=O)NC)N1C(N)=O` (stereo partly drawn) [Compound 40, (3S)-3-((S)-sec-Butyl)-N^5-methyl-2-oxo-1,2,3,5-tetrahydro-4H-benzo[e][1,4]diazepine-4,5-dicarboxamide]: 2.57 µM.
